Data published in paper PMC5433425 (PeerJ, 2017).
Several values for one entry are separate records, joined by “and”; a condition that tells them apart may be missing. Equal entries are not always repeated.

Tests used:
[1] = system: E. coli AG100A (AcrAB pump-deficient); test: MIC, broth microdilution; format: cell-based, Escherichia coli
E. coli AG100 = test: Checkerboard synergy assay (MIC of antibiotics/EtBr with efflux inhibitor); format: cell-based, Escherichia coli; conditions: AG100
Method: The assays were performed in triplicate and the MIC value was given as result of at least two concordant values.

E. coli AG100tet = test: EtBr efflux by real-time fluorometry; conditions: 80 µM
Method: Control tubes with only cells and cells with and without 0.4% glucose were included. The fluorescence was measured in a Rotor-Gene 3000 and the data was acquired every 30 s for 30 min at 37 °C. The efflux activity was quantified by comparing the fluorescence data obtained under conditions that promote efflux (presence of glucose and absence of efflux inhibitor) with the data from the control in which the bacteria are under conditions of no efflux (presence of an inhibitor and no energy source).

CCCOc1ccc(-c2cc(OCCN3CCNCC3)c3ccccc3n2)cc1 [PQQ4R, 4-(2-(piperazin-1-yl)ethoxy)-2-(4-propoxyphenyl) quinolone]
MIC decrease against AG100A compared with wild-type parental strain ([1]; AG100A vs AG100): 8 fold | MIC ([1]; E. coli AG100A): 32 μg/ml and 81.7 μM | MIC of EtBr in presence of the efflux inhibitor (E. coli AG100; inhibitor 40 μM): 200 µg/mL | MIC of OFX in presence of the efflux inhibitor (E. coli AG100; inhibitor 40 μM): 0.125 µg/mL | MIC of OXA in presence of the efflux inhibitor (E. coli AG100; inhibitor 40 μM): 512 µg/mL | MIC of TET in presence of the efflux inhibitor (E. coli AG100; inhibitor 40 μM): 1 µg/mL | MIC of EtBr in presence of the efflux inhibitor (E. coli AG100; inhibitor 80 μM): 100 µg/mL | MIC of OFX in presence of the efflux inhibitor (E. coli AG100; inhibitor 80 μM): 0.125 µg/mL | MIC of OXA in presence of the efflux inhibitor (E. coli AG100; inhibitor 80 μM): 512 µg/mL | MIC of TET in presence of the efflux inhibitor (E. coli AG100; inhibitor 80 μM): 1 µg/mL | reduction in EtBr MIC (E. coli AG100; inhibitor 80 μM): 2 fold | MIC of EtBr in presence of the efflux inhibitor (E. coli AG100; inhibitor 160 μM): 50 µg/mL | MIC of OFX in presence of the efflux inhibitor (E. coli AG100; inhibitor 160 μM): 0.125 µg/mL | MIC of OXA in presence of the efflux inhibitor (E. coli AG100; inhibitor 160 μM): 512 µg/mL | MIC of TET in presence of the efflux inhibitor (E. coli AG100; inhibitor 160 μM): 1 µg/mL | reduction in EtBr MIC (E. coli AG100; inhibitor 160 μM): 4 fold | effect on OXA MIC (E. coli AG100; inhibitor 40 to 160 µM): no effect | reduction in OFX MIC (E. coli AG100; inhibitor 40 to 160 µM): 2 fold | reduction in TET MIC (E. coli AG100; inhibitor 40 to 160 µM): 2 fold | Fluorescence raw data, Channel Cycling A.530/585hp (E. coli AG100tet; cycle 1, + glucose): 3.509 | Fluorescence raw data, Channel Cycling A.530/585hp (E. coli AG100tet; cycle 1, without glucose): 3.29 | Fluorescence raw data, Channel Cycling A.530/585hp (E. coli AG100tet; cycle 2, + glucose): 3.253 | Fluorescence raw data, Channel Cycling A.530/585hp (E. coli AG100tet; cycle 2, without glucose): 3.046 | Fluorescence raw data, Channel Cycling A.530/585hp (E. coli AG100tet; cycle 3, + glucose): 3.181 | Fluorescence raw data, Channel Cycling A.530/585hp (E. coli AG100tet; cycle 3, without glucose): 3.057 | Fluorescence raw data, Channel Cycling A.530/585hp (E. coli AG100tet; cycle 4, without glucose): 3.005 | Fluorescence raw data, Channel Cycling A.530/585hp (E. coli AG100tet; cycle 5, without glucose): 2.971 | Fluorescence raw data, Channel Cycling A.530/585hp (E. coli AG100tet; cycle 6, without glucose): 3.106 | Fluorescence raw data, Channel Cycling A.530/585hp (E. coli AG100tet; cycle 7, without glucose): 3.154 | Fluorescence raw data, Channel Cycling A.530/585hp (E. coli AG100tet; cycle 8, without glucose): 3.202 | Fluorescence raw data, Channel Cycling A.530/585hp (E. coli AG100tet; cycle 9, + glucose): 3.419 | Fluorescence raw data, Channel Cycling A.530/585hp (E. coli AG100tet; cycle 9, without glucose): 3.159 | Fluorescence raw data, Channel Cycling A.530/585hp (E. coli AG100tet; cycle 10, + glucose): 3.524 | Fluorescence raw data, Channel Cycling A.530/585hp (E. coli AG100tet; cycle 10, without glucose): 3.043 | Fluorescence raw data, Channel Cycling A.530/585hp (E. coli AG100tet; cycle 11, + glucose): 3.644 | Fluorescence raw data, Channel Cycling A.530/585hp (E. coli AG100tet; cycle 11, without glucose): 3.142 | Fluorescence raw data, Channel Cycling A.530/585hp (E. coli AG100tet; cycle 12, + glucose): 3.857 | Fluorescence raw data, Channel Cycling A.530/585hp (E. coli AG100tet; cycle 12, without glucose): 3.158 | Fluorescence raw data, Channel Cycling A.530/585hp (E. coli AG100tet; cycle 13, + glucose): 3.873 | Fluorescence raw data, Channel Cycling A.530/585hp (E. coli AG100tet; cycle 13, without glucose): 3.143 | Fluorescence raw data, Channel Cycling A.530/585hp (E. coli AG100tet; cycle 14, + glucose): 3.954 | Fluorescence raw data, Channel Cycling A.530/585hp (E. coli AG100tet; cycle 14, without glucose): 3.212 | Fluorescence raw data, Channel Cycling A.530/585hp (E. coli AG100tet; cycle 15, + glucose): 4.044 | Fluorescence raw data, Channel Cycling A.530/585hp (E. coli AG100tet; cycle 15, without glucose): 3.129 | Fluorescence raw data, Channel Cycling A.530/585hp (E. coli AG100tet; cycle 16, + glucose): 4.17 | Fluorescence raw data, Channel Cycling A.530/585hp (E. coli AG100tet; cycle 16, without glucose): 3.186 | Fluorescence raw data, Channel Cycling A.530/585hp (E. coli AG100tet; cycle 17, + glucose): 4.316 | Fluorescence raw data, Channel Cycling A.530/585hp (E. coli AG100tet; cycle 17, without glucose): 3.1931 | Fluorescence raw data, Channel Cycling A.530/585hp (E. coli AG100tet; cycle 18, + glucose): 4.457 | Fluorescence raw data, Channel Cycling A.530/585hp (E. coli AG100tet; cycle 18, without glucose): 3.175 | Fluorescence raw data, Channel Cycling A.530/585hp (E. coli AG100tet; cycle 19, + glucose): 4.5 | Fluorescence raw data, Channel Cycling A.530/585hp (E. coli AG100tet; cycle 19, without glucose): 3.177 | Fluorescence raw data, Channel Cycling A.530/585hp (E. coli AG100tet; cycle 20, + glucose): 4.55 | Fluorescence raw data, Channel Cycling A.530/585hp (E. coli AG100tet; cycle 20, without glucose): 3.2463 | Fluorescence raw data, Channel Cycling A.530/585hp (E. coli AG100tet; cycle 21, + glucose): 4.567 | Fluorescence raw data, Channel Cycling A.530/585hp (E. coli AG100tet; cycle 21, without glucose): 3.257 | Fluorescence raw data, Channel Cycling A.530/585hp (E. coli AG100tet; cycle 22, + glucose): 4.692 | Fluorescence raw data, Channel Cycling A.530/585hp (E. coli AG100tet; cycle 22, without glucose): 3.214 | Fluorescence raw data, Channel Cycling A.530/585hp (E. coli AG100tet; cycle 23, + glucose): 4.73 | Fluorescence raw data, Channel Cycling A.530/585hp (E. coli AG100tet; cycle 23, without glucose): 3.261 | Fluorescence raw data, Channel Cycling A.530/585hp (E. coli AG100tet; cycle 24, + glucose): 4.823 | Fluorescence raw data, Channel Cycling A.530/585hp (E. coli AG100tet; cycle 24, without glucose): 3.277 | Fluorescence raw data, Channel Cycling A.530/585hp (E. coli AG100tet; cycle 25, + glucose): 4.864 | Fluorescence raw data, Channel Cycling A.530/585hp (E. coli AG100tet; cycle 25, without glucose): 3.306 | Fluorescence raw data, Channel Cycling A.530/585hp (E. coli AG100tet; cycle 26, + glucose): 4.922 | Fluorescence raw data, Channel Cycling A.530/585hp (E. coli AG100tet; cycle 26, without glucose): 3.351 | Fluorescence raw data, Channel Cycling A.530/585hp (E. coli AG100tet; cycle 27, + glucose): 4.884 | Fluorescence raw data, Channel Cycling A.530/585hp (E. coli AG100tet; cycle 27, without glucose): 3.344 | Fluorescence raw data, Channel Cycling A.530/585hp (E. coli AG100tet; cycle 28, + glucose): 5.012 | Fluorescence raw data, Channel Cycling A.530/585hp (E. coli AG100tet; cycle 28, without glucose): 3.341 | Fluorescence raw data, Channel Cycling A.530/585hp (E. coli AG100tet; cycle 29, + glucose): 5.042 | Fluorescence raw data, Channel Cycling A.530/585hp (E. coli AG100tet; cycle 29, without glucose): 3.312 | Fluorescence raw data, Channel Cycling A.530/585hp (E. coli AG100tet; cycle 30, + glucose): 5.087 | Fluorescence raw data, Channel Cycling A.530/585hp (E. coli AG100tet; cycle 30, without glucose): 3.355
